Source: ChEMBL document CHEMBL1201862, “PubChem BioAssay data set” (2004)
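Interpolation was linear, between the two tested concentrations surrounding the appropriate level; five concentrations were tested over 48 hours in 96-well plates. Abbreviation: GI50, concentration required for 50% inhibition of growth.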 Active and inactive are the calls of the source. Rule as the data show it: active = GI50 up to about 1.1 µM and inactive = higher.

Columns and labels:
Test in all cases: inhibition of tumour cell growth, NCI panel, 48 h
CAKI-1 = system: CAKI-1
SNB-75 = system: SNB-75
HOP-92 = system: HOP-92
NCI-H23 = system: NCI-H23
OVCAR-8 = system: OVCAR-8
MDA-MB-435 = system: MDA-MB-435
EKVX = system: EKVX
NCI/ADR-RES = system: NCI/ADR-RES
SF-539 = system: SF-539
HCT-116 = system: HCT-116
T47D = system: T47D
BT-549 = system: BT-549
ACHN = system: ACHN
M14 = system: M14
UO-31 = system: UO-31
COLO 205 = system: COLO 205
LOX IMVI = system: LOX IMVI
NCI-H522 = system: NCI-H522
NCI-H226 = system: NCI-H226
HCC 2998 = system: HCC 2998

Measured: GI50

CN(Cc1cc(Cl)cc(Cl)c1O)Cc1c(O)ccc2ccccc12
inactive: CAKI-1 18.3 µM | SNB-75 16.7 µM | HOP-92 20.1 µM | NCI-H23 18.4 µM | OVCAR-8 19.5 µM | MDA-MB-435 19.1 µM | EKVX 20 µM | NCI/ADR-RES 20.6 µM | SF-539 20.9 µM | HCT-116 23.7 µM | T47D 19.2 µM | BT-549 17 µM | ACHN 17.3 µM | M14 20.2 µM | UO-31 17.3 µM | COLO 205 16.9 µM | LOX IMVI 16.7 µM | NCI-H522 15 µM | NCI-H226 20.6 µM

c1ccc2c(c1)nnn2CN1CCOCC1
inactive: CAKI-1 75.7 µM | HOP-92 45.8 µM | NCI-H23 > 100 µM | OVCAR-8 36.3 µM | MDA-MB-435 > 100 µM | EKVX > 100 µM | NCI/ADR-RES > 100 µM | HCT-116 > 100 µM | T47D > 100 µM | BT-549 > 100 µM | ACHN > 100 µM | M14 > 100 µM | UO-31 > 100 µM | LOX IMVI 36.6 µM | NCI-H522 > 100 µM | NCI-H226 > 100 µM

Cc1cc(Nc2ccc(/N=N/c3ccc(O)c4ncccc34)cc2)nc(C)n1
inactive: CAKI-1 25.7 µM | SNB-75 9.35 µM | HOP-92 9.75 µM | NCI-H23 7.24 µM | OVCAR-8 6.61 µM | MDA-MB-435 9.29 µM | EKVX 34.8 µM | NCI/ADR-RES 6.28 µM | SF-539 3.99 µM | HCT-116 8.93 µM | T47D 6.01 µM | BT-549 16.4 µM | ACHN 8.22 µM | M14 12.6 µM | UO-31 11 µM | COLO 205 20.8 µM | LOX IMVI 6.52 µM | NCI-H522 10.7 µM | NCI-H226 18.3 µM

C#CCOC(=O)C(N)C(C)O (centres undefined)
inactive: CAKI-1 > 100 µM | SNB-75 > 100 µM | HOP-92 > 100 µM | NCI-H23 > 100 µM | OVCAR-8 > 100 µM | MDA-MB-435 > 100 µM | EKVX > 100 µM | NCI/ADR-RES > 100 µM | HCT-116 > 100 µM | T47D > 100 µM | BT-549 > 100 µM | ACHN > 100 µM | M14 > 100 µM | UO-31 > 100 µM | COLO 205 > 100 µM | LOX IMVI > 100 µM | NCI-H522 > 100 µM | NCI-H226 > 100 µM

Cc1ccc2nc(Cl)c(/C=N/N3C(=O)/C(=C/c4ccc(N(C)C)cc4)N=C3c3ccccc3)cc2c1
inactive: CAKI-1 > 100 µM | SNB-75 24 µM | HOP-92 71.3 µM | OVCAR-8 41.8 µM | MDA-MB-435 22.1 µM | EKVX 80.9 µM | NCI/ADR-RES 32.7 µM | SF-539 18.2 µM | HCT-116 39.4 µM | T47D 43.4 µM | HCC 2998 66.2 µM | BT-549 > 100 µM | ACHN 76.9 µM | M14 47.8 µM | UO-31 37 µM | COLO 205 51.1 µM | LOX IMVI 31.5 µM

O=C(c1cccnc1)N1N=C(c2ccc3c(c2)OCO3)CC1(O)c1cc(F)c(Cl)cc1Cl (centres undefined)
inactive: CAKI-1 28.6 µM | SNB-75 15.2 µM | HOP-92 20.7 µM | NCI-H23 24.9 µM | OVCAR-8 18.8 µM | MDA-MB-435 27 µM | EKVX 20.5 µM | NCI/ADR-RES 18.5 µM | SF-539 16.7 µM | HCT-116 16.3 µM | T47D 3.59 µM | BT-549 20.9 µM | ACHN 17.7 µM | M14 31.8 µM | UO-31 17.3 µM | COLO 205 15.1 µM | LOX IMVI 16.4 µM | NCI-H522 17 µM | NCI-H226 16.2 µM

CC1ON2CCCC2[C@H]1C(=O)N1C2CC3CCC2(CS1(=O)=O)C3(C)C (some centres undefined)
inactive: CAKI-1 > 100 µM | SNB-75 > 100 µM | HOP-92 > 100 µM | NCI-H23 > 100 µM | OVCAR-8 > 100 µM | MDA-MB-435 > 100 µM | EKVX > 100 µM | NCI/ADR-RES > 100 µM | SF-539 > 100 µM | HCT-116 > 100 µM | T47D > 100 µM | BT-549 > 100 µM | ACHN > 100 µM | M14 > 100 µM | UO-31 > 100 µM | COLO 205 > 100 µM | LOX IMVI > 100 µM | NCI-H522 > 100 µM | NCI-H226 > 100 µM

O=C(O)c1ccccn1 [2-PICOLINIC ACID]
inactive: CAKI-1 > 100 µM | SNB-75 > 100 µM | HOP-92 > 100 µM | NCI-H23 > 100 µM | OVCAR-8 > 100 µM | MDA-MB-435 > 100 µM | EKVX > 100 µM | NCI/ADR-RES > 100 µM | SF-539 > 100 µM | HCT-116 > 100 µM | T47D > 100 µM | BT-549 > 100 µM | ACHN > 100 µM | M14 > 100 µM | UO-31 > 100 µM | COLO 205 > 100 µM | NCI-H226 > 100 µM
